Measurements: patent US4818761A, “2-(4-pyridylaminomethyl)-benzimidazole derivatives having antiviral activity” (priority 1986, dated 1989)
Values after ≈ are worked out from the molar mass of the structure shown.

Test system: coxsackievirus type B4 (CB4)
Experiment: Inhibition of CB4 plaque formation in LLC-MK2 cells
Format: cell-based
Conditions: Coxsackievirus; plaque reduction, LLC-MK2 cells, 37° C.

Molecule `CCc1ccc2c(c1)nc(CNc1ccncc1)n2C` [XXXVII] has an IC50 of over 50 µg/mL.

Test system: not listed separately
Experiment: in vitro
Conditions: human, hela cells

`Cc1ccc2nc(CNc3ccncc3)n(-c3ccccc3)c2c1` [XLIII] and `CCc1ccc2c(c1)nc(CNc1ccncc1)n2-c1ccccc1` [XLIV] cannot be ordered by CC50: over 100 µg/mL for the first, over 100 µg/mL for the second.

Compared with `CCc1ccccc1-n1c(CNc2ccncc2)nc2ccccc21` [LXV], `CCc1cc2c(cc1Cl)nc(CNc1ccncc1)n2-c1ccccc1` [LXXV, 1-phenyl-2-(4-pyridylaminomethyl)-5-chloro-6-ethylbenzimidazole] is lower in CC50: over 100 µg/mL for the first, 17.8 µg/mL (≈ 49.1 µM) for the second.

`Clc1cc(Cl)c2nc(CNc3ccncc3)[nH]c2c1` [XXVII] and `Cc1cc(Cl)cc2[nH]c(CNc3ccncc3)nc12` [XXV] are the same in CC50: 17.8 µg/mL (≈ 60.7 µM) for the first, 17.8 µg/mL (≈ 65.3 µM) for the second.

`c1ccc2c(c1)nc(CNc1ccncc1)n2-c1nccs1` [LXXIII] and `c1ccc(Oc2ccc3[nH]c(CNc4ccncc4)nc3c2)cc1` [LXXIV] cannot be ordered by CC50: over 100 µg/mL for the first, over 100 µg/mL for the second.

With `Cc1cc(Cl)c2nc(CNc3ccncc3)[nH]c2c1` [XXVI] the CC50 was 56.2 µg/mL (≈ 206 µM).

Test system: enterovirus type 70 (EV70)
Experiment: Inhibition of EV70 plaque formation in LLC-MK2 cells
Format: cell-based
Conditions: CI = CD50 (LLC-MK2)/IC50 (plaque)

In the case of `CCc1ccc2c(c1)nc(CNc1ccncc1)n2C` [XXXVII], the “CI EV70 (C)/(A)” value is reported as over 5.

Same assay, conditions: Enterovirus D; plaque reduction, LLC-MK2 cells, 33° C.

Compared with `CC(C)Cn1c(CNc2ccncc2)nc2ccccc21` [XLIX], `CCc1ccc2c(c1)nc(CNc1ccncc1)n2C` [XXXVII] is lower in IC50: over 100 µg/mL for the first, 22 µg/mL (≈ 82.6 µM) for the second.

Test system: coxsackievirus type B4 (CB4)
Experiment: Inhibition of CB4 cytopathogenic effect (CPE) in LLC-MK2 cells
Format: cell-based
Conditions: CI = CD50 (LLC-MK2)/IC50 (virus CPE)

In the case of `CC(C)Cn1c(CNc2ccncc2)nc2ccccc21` [XLIX], the “CI CB4 (C)/(A)” value is reported as over 952.
In the case of `Cc1ccc2nc(CNc3ccncc3)n(-c3ccccc3)c2c1` [XLIII], the “CI CB4 (C)/(A)” value is reported as over 31.
For `CCc1ccc2c(c1)nc(CNc1ccncc1)n2-c1ccccc1` [XLIV], the “CI CB4 (C)/(A)” value was over 15.

Same assay, conditions: Coxsackievirus; * Virus CPE inhibition assay, LLC-MK2 cells, 37° C.

Compared with `CC(C)Cn1c(CNc2ccncc2)nc2ccccc21` [XLIX], `CCOCCn1c(CNc2ccncc2)nc2ccccc21` [LIV] is higher in IC50: 2.1 µg/mL (≈ 7.49 µM) for the first, over 100 µg/mL for the second.

Going from `Cc1ccc2nc(CNc3ccncc3)n(-c3ccccc3)c2c1` [XLIII] to `Fc1ccc2nc(CNc3ccncc3)n(-c3ccccc3)c2c1` [XLVIII], the IC50 rises from 3.2 µg/mL (≈ 10.2 µM) to over 100 µg/mL.

`CC(C)(C)C(=O)Cn1c(CNc2ccncc2)nc2ccccc21` [LIII] and `CCc1ccccc1-n1c(CNc2ccncc2)nc2ccccc21` [LXV] cannot be ordered by IC50: over 100 µg/mL for the first, over 100 µg/mL for the second.

Compared with `CCc1ccc2c(c1)nc(CNc1ccncc1)n2-c1ccccc1` [XLIV], `CCc1cc2c(cc1Cl)nc(CNc1ccncc1)n2-c1ccccc1` [LXXV, 1-phenyl-2-(4-pyridylaminomethyl)-5-chloro-6-ethylbenzimidazole] is higher in IC50: 6.8 µg/mL (≈ 20.7 µM) for the first, over 100 µg/mL for the second.

`c1ccc2c(c1)nc(CNc1ccncc1)n2-c1nccs1` [LXXIII] and `c1ccc(Oc2ccc3[nH]c(CNc4ccncc4)nc3c2)cc1` [LXXIV] cannot be ordered by IC50: over 100 µg/mL for the first, over 100 µg/mL for the second.

Test system: not listed separately
Experiment: Cytotoxicity, morphology of LLC-MK2 cells
Conditions: monkey

`COc1cc2nc(CNc3ccncc3)[nH]c2cc1Cl` [XXXIII] and `CCc1ccc2c(c1)nc(CNc1ccncc1)n2C` [XXXVII] cannot be ordered by CC50: over 100 µg/mL for the first, over 100 µg/mL for the second.

For `Fc1ccc2nc(CNc3ccncc3)n(-c3ccccc3)c2c1` [XLVIII], the CC50 was over 100 µg/mL.

Test system: poliovirus type 2 (Polio2)
Experiment: microbe, parasite or virus in culture
Format: cell-based
Conditions: Enterovirus C, LLC-MK2, read-out: IC50 Polio2

`CCc1ccc2c(c1)nc(CNc1ccncc1)n2C` [XXXVII] showed an IC50 of over 100 µg/mL.

Test system: rhinovirus type 14 (HRV14)
Experiment: Inhibition of HRV14 plaque formation in HeLa cells
Format: cell-based
Conditions: CI = CD50 (HeLa)/IC50 (plaque)

In the case of `c1ccc(Oc2ccc3[nH]c(CNc4ccncc4)nc3c2)cc1` [LXXIV], the “CI HRV14 (D)/(B)” value is reported as over 6.

Same assay, conditions: Enterovirus, HRV14; plaque reduction, HeLa cells, 33° C.

`c1ccc(Oc2ccc3[nH]c(CNc4ccncc4)nc3c2)cc1` [LXXIV] and `CCc1ccc2c(c1)nc(CNc1ccncc1)n2C` [XXXVII] are within 1.5-fold of each other in IC50: 17.8 µg/mL (≈ 56.3 µM) for the first, 20 µg/mL (≈ 75.1 µM) for the second.

Test system: rhinovirus type 14 (HRV14)
Experiment: Inhibition of HRV14 cytopathogenic effect (CPE) in HeLa cells
Format: cell-based
Conditions: CI = CD50 (HeLa)/IC50 (virus CPE)

For `CCc1ccc2c(c1)nc(CNc1ccncc1)n2-c1ccccc1` [XLIV], the “CI HRV14 (D)/(B)” value was over 6.

For `CCc1cc2c(cc1Cl)nc(CNc1ccncc1)n2-c1ccccc1` [LXXV, 1-phenyl-2-(4-pyridylaminomethyl)-5-chloro-6-ethylbenzimidazole], the “CI HRV14 (D)/(B)” value was 3.

Same assay, conditions: Enterovirus, HRV14; * Virus CPE inhibition assay, HeLa cells, 33° C.

`CC(C)Cn1c(CNc2ccncc2)nc2ccccc21` [XLIX] and `CCOCCn1c(CNc2ccncc2)nc2ccccc21` [LIV] cannot be ordered by IC50: over 100 µg/mL for the first, over 100 µg/mL for the second.

Compared with `Cc1ccc2nc(CNc3ccncc3)n(-c3ccccc3)c2c1` [XLIII], `CCc1ccc2c(c1)nc(CNc1ccncc1)n2-c1ccccc1` [XLIV] is lower in IC50: over 100 µg/mL for the first, 17.8 µg/mL (≈ 54.2 µM) for the second.

`CC(C)(C)C(=O)Cn1c(CNc2ccncc2)nc2ccccc21` [LIII] and `CCc1ccccc1-n1c(CNc2ccncc2)nc2ccccc21` [LXV] cannot be ordered by IC50: over 100 µg/mL for the first, over 100 µg/mL for the second.

First: Clc1cc(Cl)c2nc(CNc3ccncc3)[nH]c2c1 [XXVII]
Second: Cc1cc(Cl)cc2[nH]c(CNc3ccncc3)nc12 [XXV]
The IC50 of the first is higher: over 17.8 µg/mL for the first, 17.8 µg/mL (≈ 65.3 µM) for the second.

Compared with `c1ccc2c(c1)nc(CNc1ccncc1)n2-c1nccs1` [LXXIII], `CCc1cc2c(cc1Cl)nc(CNc1ccncc1)n2-c1ccccc1` [LXXV, 1-phenyl-2-(4-pyridylaminomethyl)-5-chloro-6-ethylbenzimidazole] is lower in IC50: over 100 µg/mL for the first, 5.6 µg/mL (≈ 15.4 µM) for the second.

`Cc1cc(Cl)c2nc(CNc3ccncc3)[nH]c2c1` [XXVI] gave an IC50 of over 56.2 µg/mL.

Test system: enterovirus type 70 (EV70)
Experiment: Inhibition of EV70 cytopathogenic effect (CPE) in LLC-MK2 cells
Format: cell-based
Conditions: CI = CD50 (LLC-MK2)/IC50 (virus CPE)

With `Cc1ccc2nc(CNc3ccncc3)n(-c3ccccc3)c2c1` [XLIII] the “CI EV70 (C)/(A)” value was over 6.
In the case of `CCc1ccc2c(c1)nc(CNc1ccncc1)n2-c1ccccc1` [XLIV], the “CI EV70 (C)/(A)” value is reported as over 31.
With `COc1cc2nc(CNc3ccncc3)[nH]c2cc1Cl` [XXXIII] the “CI EV70 (C)/(A)” value was over 2.
In the case of `CCc1cc2c(cc1Cl)nc(CNc1ccncc1)n2-c1ccccc1` [LXXV, 1-phenyl-2-(4-pyridylaminomethyl)-5-chloro-6-ethylbenzimidazole], the “CI EV70 (C)/(A)” value is reported as over 2.

In the case of `Cc1cc(Cl)cc2[nH]c(CNc3ccncc3)nc12` [XXV], the “CI EV70 (C)/(A)” value is reported as 13.

Same assay, conditions: Enterovirus D; * Virus CPE inhibition assay, LLC-MK2 cells, 33° C.

Going from `Cc1ccc2nc(CNc3ccncc3)n(-c3ccccc3)c2c1` [XLIII] to `Fc1ccc2nc(CNc3ccncc3)n(-c3ccccc3)c2c1` [XLVIII], the IC50 rises from 17.8 µg/mL (≈ 56.6 µM) to over 100 µg/mL.

`CC(C)(C)C(=O)Cn1c(CNc2ccncc2)nc2ccccc21` [LIII] and `CCOCCn1c(CNc2ccncc2)nc2ccccc21` [LIV] cannot be ordered by IC50: over 100 µg/mL for the first, over 100 µg/mL for the second.

Compared with `CCc1ccccc1-n1c(CNc2ccncc2)nc2ccccc21` [LXV], `CCc1ccc2c(c1)nc(CNc1ccncc1)n2-c1ccccc1` [XLIV] is lower in IC50: over 100 µg/mL for the first, 3.2 µg/mL (≈ 9.74 µM) for the second.

Compared with `Clc1cc(Cl)c2nc(CNc3ccncc3)[nH]c2c1` [XXVII], `Cc1cc(Cl)cc2[nH]c(CNc3ccncc3)nc12` [XXV] is lower in IC50: over 100 µg/mL for the first, 56.2 µg/mL (≈ 206 µM) for the second.

Going from `COc1cc2nc(CNc3ccncc3)[nH]c2cc1Cl` [XXXIII] to `Cc1cc(Cl)c2nc(CNc3ccncc3)[nH]c2c1` [XXVI], the IC50 rises from 56.2 µg/mL (≈ 195 µM) to over 100 µg/mL.

`c1ccc2c(c1)nc(CNc1ccncc1)n2-c1nccs1` [LXXIII] and `CCc1cc2c(cc1Cl)nc(CNc1ccncc1)n2-c1ccccc1` [LXXV, 1-phenyl-2-(4-pyridylaminomethyl)-5-chloro-6-ethylbenzimidazole] cannot be ordered by IC50: over 100 µg/mL for the first, over 56.2 µg/mL for the second.

Molecule `c1ccc(Oc2ccc3[nH]c(CNc4ccncc4)nc3c2)cc1` [LXXIV] has an IC50 of over 100 µg/mL.

Test system: not listed separately
Experiment: in vitro
Conditions: monkey, llc-mk2 cells

`CC(C)Cn1c(CNc2ccncc2)nc2ccccc21` [XLIX] and `CCOCCn1c(CNc2ccncc2)nc2ccccc21` [LIV] cannot be ordered by CC50: over 2000 µg/mL for the first, over 2000 µg/mL for the second.

`Cc1ccc2nc(CNc3ccncc3)n(-c3ccccc3)c2c1` [XLIII] and `CCc1ccc2c(c1)nc(CNc1ccncc1)n2-c1ccccc1` [XLIV] cannot be ordered by CC50: over 100 µg/mL for the first, over 100 µg/mL for the second.

`CC(C)(C)C(=O)Cn1c(CNc2ccncc2)nc2ccccc21` [LIII] and `CCc1ccccc1-n1c(CNc2ccncc2)nc2ccccc21` [LXV] cannot be ordered by CC50: over 2000 µg/mL for the first, over 100 µg/mL for the second.

`Clc1cc(Cl)c2nc(CNc3ccncc3)[nH]c2c1` [XXVII] and `Cc1cc(Cl)cc2[nH]c(CNc3ccncc3)nc12` [XXV] cannot be ordered by CC50: over 100 µg/mL for the first, 707 µg/mL (≈ 2590 µM) for the second.

`c1ccc2c(c1)nc(CNc1ccncc1)n2-c1nccs1` [LXXIII] and `CCc1cc2c(cc1Cl)nc(CNc1ccncc1)n2-c1ccccc1` [LXXV, 1-phenyl-2-(4-pyridylaminomethyl)-5-chloro-6-ethylbenzimidazole] cannot be ordered by CC50: over 100 µg/mL for the first, over 100 µg/mL for the second.

`c1ccc(Oc2ccc3[nH]c(CNc4ccncc4)nc3c2)cc1` [LXXIV] and `Cc1cc(Cl)c2nc(CNc3ccncc3)[nH]c2c1` [XXVI] cannot be ordered by CC50: over 100 µg/mL for the first, 1410 µg/mL (≈ 5180 µM) for the second.
